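Five concentrations, 48 hours, 96-well plates. GI50 marks 50% less growth.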 Active and inactive are the calls of the source. Rule as the data show it: active = GI50 up to about 1.1 µM and inactive = higher.
Columns and labels:
Assay in all cases: growth of human tumour cells (NCI), 48 h
HCT-116 = test system: HCT-116
UACC-62 = test system: UACC-62
UO-31 = test system: UO-31
MOLT-4 = test system: MOLT-4
KM12 = test system: KM12
HCC 2998 = test system: HCC 2998
TK-10 = test system: TK-10
IGROV-1 = test system: IGROV-1
SNB-19 = test system: SNB-19
SK-MEL-2 = test system: SK-MEL-2
SF-295 = test system: SF-295
SF-539 = test system: SF-539
RPMI-8226 = test system: RPMI-8226
T47D = test system: T47D
MDA-MB-435 = test system: MDA-MB-435
SK-OV-3 = test system: SK-OV-3
CAKI-1 = test system: CAKI-1
HOP-62 = test system: HOP-62
NCI-H23 = test system: NCI-H23
NCI/ADR-RES = test system: NCI/ADR-RES

| Compound | GI50 (HCT-116) | GI50 (UACC-62) | GI50 (UO-31) | GI50 (MOLT-4) | GI50 (KM12) | GI50 (HCC 2998) | GI50 (TK-10) | GI50 (IGROV-1) | GI50 (SNB-19) | GI50 (SK-MEL-2) | GI50 (SF-295) | GI50 (SF-539) | GI50 (RPMI-8226) | GI50 (T47D) | GI50 (MDA-MB-435) | GI50 (SK-OV-3) | GI50 (CAKI-1) | GI50 (HOP-62) | GI50 (NCI-H23) | GI50 (NCI/ADR-RES) |
| --- | --- | --- | --- | --- | --- | --- | --- | --- | --- | --- | --- | --- | --- | --- | --- | --- | --- | --- | --- | --- |
| O=C1Nc2ccc([N+](=O)[O-])cc2/C1=N/NC(=S)Nc1ccc([N+](=O)[O-])cc1 | 20.4 µM (inactive) | 21.1 µM (inactive) | 18 µM (inactive) | 35.9 µM (inactive) | 18.6 µM (inactive) | 20.9 µM (inactive) | 24.7 µM (inactive) | 17.7 µM (inactive) | 26.2 µM (inactive) | 18.5 µM (inactive) | 19.8 µM (inactive) | 29.4 µM (inactive) | 34.9 µM (inactive) | 19.1 µM (inactive) | 18.4 µM (inactive) | 22.4 µM (inactive) | 21.6 µM (inactive) | 22.6 µM (inactive) | 19.9 µM (inactive) | 20.5 µM (inactive) |
| Cc1ccc(-c2cc(-c3c(C)nn(C)c(=O)c3N)n[nH]2)cc1 | > 100 µM (inactive) | > 100 µM (inactive) |  | > 100 µM (inactive) | > 100 µM (inactive) | > 100 µM (inactive) | > 100 µM (inactive) | > 100 µM (inactive) | > 100 µM (inactive) | > 100 µM (inactive) | > 100 µM (inactive) | > 100 µM (inactive) | 99.1 µM (inactive) | 53.5 µM (inactive) | > 100 µM (inactive) | > 100 µM (inactive) | > 100 µM (inactive) |  | > 100 µM (inactive) | > 100 µM (inactive) |
| COc1ccc2c(CC(=O)O)cc(=O)oc2c1 | > 100 µM (inactive) | > 100 µM (inactive) | > 100 µM (inactive) | > 100 µM (inactive) | > 100 µM (inactive) | > 100 µM (inactive) | > 100 µM (inactive) | > 100 µM (inactive) | > 100 µM (inactive) |  | > 100 µM (inactive) | > 100 µM (inactive) | > 100 µM (inactive) | > 100 µM (inactive) | > 100 µM (inactive) |  | > 100 µM (inactive) | > 100 µM (inactive) | > 100 µM (inactive) | > 100 µM (inactive) |
| c1ccc2c(c1)SCCC2NC1=NCCO1 (stereo not given) | > 100 µM (inactive) | > 100 µM (inactive) | > 100 µM (inactive) | > 100 µM (inactive) | > 100 µM (inactive) | > 100 µM (inactive) | > 100 µM (inactive) | > 100 µM (inactive) | > 100 µM (inactive) | > 100 µM (inactive) | > 100 µM (inactive) | > 100 µM (inactive) | > 100 µM (inactive) | > 100 µM (inactive) | > 100 µM (inactive) | > 100 µM (inactive) | > 100 µM (inactive) | > 100 µM (inactive) | > 100 µM (inactive) | > 100 µM (inactive) |
| Cc1nc2sccn2c1/C=C1/C(=O)Nc2cccc(Cl)c21 | 89.9 µM (inactive) | > 100 µM (inactive) | > 100 µM (inactive) | > 100 µM (inactive) | 38.3 µM (inactive) | > 100 µM (inactive) | > 100 µM (inactive) | 53.6 µM (inactive) | > 100 µM (inactive) | > 100 µM (inactive) | 51.6 µM (inactive) | > 100 µM (inactive) | > 100 µM (inactive) | 38.6 µM (inactive) | 11.6 µM (inactive) | > 100 µM (inactive) | > 100 µM (inactive) | > 100 µM (inactive) | > 100 µM (inactive) | 34.2 µM (inactive) |
| O=C1OC(c2ccccc2)=NC1c1ccccc1 (stereo not given) | > 100 µM (inactive) | > 100 µM (inactive) | > 100 µM (inactive) | > 100 µM (inactive) | > 100 µM (inactive) | > 100 µM (inactive) | > 100 µM (inactive) | > 100 µM (inactive) | > 100 µM (inactive) |  | > 100 µM (inactive) | > 100 µM (inactive) | > 100 µM (inactive) | > 100 µM (inactive) | > 100 µM (inactive) | > 100 µM (inactive) | > 100 µM (inactive) | > 100 µM (inactive) | > 100 µM (inactive) | > 100 µM (inactive) |
| CCN(CC)c1nc(N(C)C)c2ccc(OC)cc2n1 | 4.35 µM (inactive) | 6.65 µM (inactive) |  | 3.49 µM (inactive) | 14.7 µM (inactive) | 11.6 µM (inactive) | 24.5 µM (inactive) | 23.2 µM (inactive) | 20 µM (inactive) | 15.9 µM (inactive) | 17.2 µM (inactive) | 16.7 µM (inactive) | 10.1 µM (inactive) | 17.2 µM (inactive) | 10.5 µM (inactive) | 13.7 µM (inactive) | 22.9 µM (inactive) | 19.7 µM (inactive) | 15.1 µM (inactive) | 11.9 µM (inactive) |
| CCCCCCCCCc1cccc(N2C(N)=NC(N)=NC2(C)C)c1 | < 0.01 µM (active) | < 0.01 µM (active) | 1.93 µM (inactive) | < 0.0273 µM (active) | 0.0139 µM (active) | < 0.01 µM (active) | 0.0304 µM (active) | < 0.01 µM (active) |  | 0.993 µM (active) | 0.0148 µM (active) | 0.0339 µM (active) | 0.0112 µM (active) | 0.528 µM (active) | 0.0165 µM (active) | 1.62 µM (inactive) | 0.293 µM (active) | < 0.0237 µM (active) | < 0.01 µM (active) | 4.62 µM (inactive) |
| Cc1cc([C@H](C#N)c2nc3ccccc3[nH]2)nc(Cl)n1 | 37.8 µM (inactive) | 22.3 µM (inactive) | 35.6 µM (inactive) | > 100 µM (inactive) | 14.9 µM (inactive) | 20.3 µM (inactive) | 61.1 µM (inactive) | 54.5 µM (inactive) | 71.6 µM (inactive) | 26.5 µM (inactive) | > 100 µM (inactive) | 61.9 µM (inactive) | 5.65 µM (inactive) | 21.3 µM (inactive) | 30.4 µM (inactive) | > 100 µM (inactive) | 98.4 µM (inactive) |  | 30.1 µM (inactive) | 30.1 µM (inactive) |
| Cc1oc2nc(N(C)C)nc(NN)c2c1C | > 100 µM (inactive) | > 100 µM (inactive) | 61.7 µM (inactive) | > 100 µM (inactive) | > 100 µM (inactive) | > 100 µM (inactive) | > 100 µM (inactive) | > 100 µM (inactive) | > 100 µM (inactive) | > 100 µM (inactive) | > 100 µM (inactive) | > 100 µM (inactive) | > 100 µM (inactive) | > 100 µM (inactive) | > 100 µM (inactive) |  | > 100 µM (inactive) | > 100 µM (inactive) | > 100 µM (inactive) | > 100 µM (inactive) |
| OC(C1CCC=NN1C(O)(C(F)(F)F)C(F)(F)F)(C(F)(F)F)C(F)(F)F (stereo not given) | > 10 µM (inactive) | > 10 µM (inactive) |  | > 10 µM (inactive) | > 10 µM (inactive) | > 10 µM (inactive) | > 10 µM (inactive) | > 10 µM (inactive) | > 10 µM (inactive) | > 10 µM (inactive) | > 10 µM (inactive) | > 10 µM (inactive) | > 10 µM (inactive) | > 10 µM (inactive) | > 10 µM (inactive) | > 10 µM (inactive) | > 10 µM (inactive) | > 10 µM (inactive) | > 10 µM (inactive) | > 10 µM (inactive) |
| CCC(/C=C/c1ccccc1)=N\NC(=S)N/N=C(/C=C/c1ccccc1)CC | 19 µM (inactive) | 54.8 µM (inactive) | 13 µM (inactive) | 5.51 µM (inactive) | 31.8 µM (inactive) | 84.1 µM (inactive) | > 100 µM (inactive) | 55.8 µM (inactive) | 63 µM (inactive) |  | 87.7 µM (inactive) | 31.5 µM (inactive) | 35.5 µM (inactive) | 35.9 µM (inactive) | 46.5 µM (inactive) | 20.1 µM (inactive) | > 100 µM (inactive) | > 100 µM (inactive) | 84.3 µM (inactive) | 29.6 µM (inactive) |
| COc1cc(C2c3cc(O)c(OC)cc3C3OCC2C3CO)ccc1O (stereo not given) | 76.9 µM (inactive) | > 100 µM (inactive) | > 100 µM (inactive) | > 100 µM (inactive) | > 100 µM (inactive) | > 100 µM (inactive) | > 100 µM (inactive) |  | > 100 µM (inactive) | > 100 µM (inactive) | > 100 µM (inactive) | > 100 µM (inactive) | > 100 µM (inactive) | > 100 µM (inactive) | > 100 µM (inactive) | > 100 µM (inactive) | > 100 µM (inactive) | > 100 µM (inactive) | > 100 µM (inactive) | > 100 µM (inactive) |
| COC(=O)/C=C\[C@H]1[C@H](C)N1S(=O)(=O)c1ccc(C)cc1 (stereo not given in full) | > 100 µM (inactive) | > 100 µM (inactive) |  | > 100 µM (inactive) | > 100 µM (inactive) | > 100 µM (inactive) | > 100 µM (inactive) | > 100 µM (inactive) | > 100 µM (inactive) | > 100 µM (inactive) | > 100 µM (inactive) | > 100 µM (inactive) | > 100 µM (inactive) | > 100 µM (inactive) | > 100 µM (inactive) | > 100 µM (inactive) | > 100 µM (inactive) | > 100 µM (inactive) | > 100 µM (inactive) | > 100 µM (inactive) |
| C=CCC1(O)CC(n2cc(C)c(=O)[nH]c2=O)OC1CO[Si](C)(C)C(C)(C)C (stereo not given) | 42 µM (inactive) | 35.9 µM (inactive) | 42.4 µM (inactive) | 57.3 µM (inactive) | 45.3 µM (inactive) | 24.5 µM (inactive) |  | 46.9 µM (inactive) | > 100 µM (inactive) | 22.3 µM (inactive) | 42.9 µM (inactive) | 53.5 µM (inactive) | 37.4 µM (inactive) | 55.2 µM (inactive) | 41.5 µM (inactive) |  | 54.6 µM (inactive) | > 100 µM (inactive) | 44 µM (inactive) | 43.1 µM (inactive) |

From ChEMBL document CHEMBL1201862, “PubChem BioAssay data set” (2004)
